Assay results from publication PMC9299109 (Iubmb Life, 2021).

What was measured:
[1] = target: T1, BoFADS (FAD synthase from Brucella ovis) (Brucella ovis, UniProt A0A0H3AW96)
[2] = target: T1, BoFADS (FAD synthase from Brucella ovis); assay: biochemical

T1 sequence (A0A0H3AW96 1-329): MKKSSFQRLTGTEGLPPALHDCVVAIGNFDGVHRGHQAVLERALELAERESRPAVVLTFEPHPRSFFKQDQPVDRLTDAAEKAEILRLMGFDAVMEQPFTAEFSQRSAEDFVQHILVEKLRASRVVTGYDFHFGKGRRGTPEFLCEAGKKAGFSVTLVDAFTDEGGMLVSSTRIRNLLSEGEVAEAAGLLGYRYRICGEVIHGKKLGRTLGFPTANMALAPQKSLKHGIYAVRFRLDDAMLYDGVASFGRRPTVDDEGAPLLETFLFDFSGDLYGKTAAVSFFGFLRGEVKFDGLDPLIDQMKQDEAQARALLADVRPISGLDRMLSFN

| SMILES | visible difference spectroscopy, FMN titration with ADP [1] | Kd [2] [nM] |
| --- | --- | --- |
| Nc1ncnc2c1ncn2[C@@H]1O[C@H](COP(=O)(O)OP(=O)(O)O)[C@@H](O)[C@H]1O [ADP] | titrated with oxidized FMN in the presence of ADP but not in its absence | – |
| Cc1cc2nc3c(=O)[nH]c(=O)nc-3n(C[C@H](O)[C@H](O)[C@H](O)COP(=O)(O)O)c2cc1C [FMN, flavin mononucleotide] | – | 290 ± 100 |
| Cc1cc2nc3c(=O)[nH]c(=O)nc-3n(C[C@H](O)[C@H](O)[C@H](O)CO)c2cc1C [RF, riboflavin] | – | 410 ± 60 |
